In this experiment the test system is CD2F1 mice, ip Colon 26 adenocarcinoma, median survival T/C. As to the kind of experiment: NCI In Vivo Anticancer Drug Screen. Data for tumor model Colon 26 Adenocarcinoma (intraperitoneal) in CD2F1 (CDF1) mice. The note with it: endpoint: median survival time, higher = longer survival. As to the method:
The antitumor activity of compounds was measured in mice bearing transplantable tumors. Survival or tumor size were measured and the results are expressed as the measurement made in the treated group (T) divided by the measurement made in the vehicle treated control group (C). The tumor model used in this assay is Colon 26 Adenocarcinoma (intraperitoneal) in CD2F1 (CDF1) mice

Where [1] appears, read: dose: 12.5 mg/kg/injection, schedule: Q04DX003 (ip), vehicle: saline.
The mark [2] stands for this setting: dose: 25.0 mg/kg/injection, schedule: Q04DX003 (ip), vehicle: Klucel (hydroxypropylcellulose) (HPC).
Where [3] appears, read: dose: 50.0 mg/kg/injection, schedule: Q04DX003 (ip), vehicle: Klucel (hydroxypropylcellulose) (HPC).
The mark [4] stands for this setting: dose: 100.0 mg/kg/injection, schedule: Q04DX003 (ip), vehicle: Klucel (hydroxypropylcellulose) (HPC).
The mark [5] stands for this setting: dose: 200.0 mg/kg/injection, schedule: Q04DX003 (ip), vehicle: Klucel (hydroxypropylcellulose) (HPC).
Where [6] appears, read: dose: 5.0 mg/kg/injection, schedule: Q04DX003 (ip), vehicle: Klucel (hydroxypropylcellulose) (HPC).
[7] abbreviates: dose: 10.0 mg/kg/injection, schedule: Q04DX003 (ip), vehicle: Klucel (hydroxypropylcellulose) (HPC).
Setting [8] is: dose: 20.0 mg/kg/injection, schedule: Q04DX003 (ip), vehicle: Klucel (hydroxypropylcellulose) (HPC).

Molecules are shown by their SMILES. Values joined by “and” are separate entries in the source; they are usually repeats but may differ in a detail not shown here. Identical values can stand only once. Inconclusive results and toxic doses are left out.

Consider eleven compounds from PubChem BioAssay AID210 (DTP/NCI, 2004).

On to `Nc1ncnc2c1ccn2C1OC(CO)C(O)C1O` (stereo unspecified), for which the T/C by setting is: (dose: 0.5 mg/kg/injection, schedule: Q04DX003 (ip), vehicle: Klucel (hydroxypropylcellulose) (HPC)) 98 % of control; (dose: 1.0 mg/kg/injection, schedule: Q04DX003 (ip), vehicle: Klucel (hydroxypropylcellulose) (HPC)) 119 % of control; (dose: 2.0 mg/kg/injection, schedule: Q04DX003 (ip), vehicle: Klucel (hydroxypropylcellulose) (HPC)) 118 % of control; (dose: 4.0 mg/kg/injection, schedule: Q04DX003 (ip), vehicle: Klucel (hydroxypropylcellulose) (HPC)) 115 % of control.

Take `N=C(N)SCc1c2ccccc2c(CSC(=N)N)c2ccccc12`: the T/C is, setting by setting: under setting [1], 241 % of control; (dose: 25.0 mg/kg/injection, schedule: Q04DX003 (ip), vehicle: saline) 186 % of control; (dose: 50.0 mg/kg/injection, schedule: Q04DX003 (ip), vehicle: saline) 248 % of control; (dose: 100.0 mg/kg/injection, schedule: Q04DX003 (ip), vehicle: saline) 216 % of control; (dose: 200.0 mg/kg/injection, schedule: Q04DX003 (ip), vehicle: saline) 197 % of control.

Consider `Clc1ccc(C2SC=Cc3ccccc32)cc1` (stereo unspecified), for which the T/C by setting is: (dose: 3.12 mg/kg/injection, schedule: Q04DX002 (ip), vehicle: Klucel (hydroxypropylcellulose) (HPC)) 105 % of control; under setting [2], 99 % of control; under setting [3], 103 % of control; (dose: 62.5 mg/kg/injection, schedule: Q04DX002 (ip), vehicle: Klucel (hydroxypropylcellulose) (HPC)) 100 % of control; under setting [4], 97 % of control; (dose: 125.0 mg/kg/injection, schedule: Q04DX002 (ip), vehicle: Klucel (hydroxypropylcellulose) (HPC)) 98 % of control. Further, the T/C by setting is: under setting [5], 105 % of control; (dose: 250.0 mg/kg/injection, schedule: Q04DX002 (ip), vehicle: Klucel (hydroxypropylcellulose) (HPC)) 96 % of control; (dose: 500.0 mg/kg/injection, schedule: Q04DX002 (ip), vehicle: Klucel (hydroxypropylcellulose) (HPC)) 100 % of control.

Take `C1CCC2[N-]CC3CCCCC3[N-]CC3CCCCC3[N-]CC3CCCCC3[N-]CC2C1.[Cu]` (stereo unspecified): the T/C by setting is: (dose: 0.63 mg/kg/injection, schedule: Q04DX003 (ip), vehicle: Klucel (hydroxypropylcellulose) (HPC)) 110 % of control; (dose: 1.25 mg/kg/injection, schedule: Q04DX003 (ip), vehicle: Klucel (hydroxypropylcellulose) (HPC)) 107 % of control; (dose: 2.5 mg/kg/injection, schedule: Q04DX003 (ip), vehicle: Klucel (hydroxypropylcellulose) (HPC)) 105 % of control; under setting [6], 111 % of control; under setting [7], 122 % of control; under setting [8], 111 % of control.

For `CC1CCC(NC(=O)N(CCCl)N=O)CC1` (stereo unspecified), the T/C reads like this: under setting [6], 250 % of control; (dose: 6.7 mg/kg/injection, schedule: Q04DX002 (ip), vehicle: saline with Tween-80) 106 % of control; (dose: 10.0 mg/kg/injection, schedule: Q04DX002 (ip), vehicle: saline with Tween-80) 108 % of control; under setting [7], 305 % of control; (dose: 12.0 mg/kg/injection, schedule: Q07DX003 (ip), vehicle: saline with Tween-80) 189 % of control and 219 % of control; (dose: 15.0 mg/kg/injection, schedule: Q04DX002 (ip), vehicle: saline with Tween-80) 123 % of control. In addition, the T/C reads like this: (dose: 17.0 mg/kg/injection, schedule: Q07DX003 (ip), vehicle: saline with Tween-80) 262 % of control and 288 % of control; (dose: 20.0 mg/kg/injection, schedule: Q01DX001 (ip), vehicle: other) 217 % of control; under setting [8], 437 % of control; (dose: 24.0 mg/kg/injection, schedule: Q07DX003 (ip), vehicle: saline with Tween-80) 288 % of control and 354 % of control; (dose: 30.0 mg/kg/injection, schedule: Q01DX001 (ip), vehicle: other) 217 % of control; (dose: 30.0 mg/kg/injection, schedule: Q01DX005 (ip), vehicle: saline with Tween-80) 352 % of control. Moreover, the T/C is, setting by setting: (dose: 40.0 mg/kg/injection, schedule: Q01DX005 (ip), vehicle: saline with Tween-80) 329 % of control; (dose: 55.0 mg/kg/injection, schedule: Q01DX005 (ip), vehicle: saline with Tween-80) 172 % of control.

With `CCCCCC(=O)O[C@]1(C(C)=O)CC[C@H]2[C@@H]3CCC4=CC(=O)CC[C@]4(C)[C@H]3CC[C@@]21C`, the T/C by setting is: under setting [2], 101 % of control; under setting [3], 106 % of control; under setting [4], 100 % of control; under setting [5], 106 % of control; (dose: 400.0 mg/kg/injection, schedule: Q04DX003 (ip), vehicle: Klucel (hydroxypropylcellulose) (HPC)) 103 % of control.

As for `OCCN1CCN(CC/C=C2/c3ccccc3Sc3ccc(C(F)(F)F)cc32)CC1`, the T/C (dose: 3.13 mg/kg/injection, schedule: Q04DX003 (ip), vehicle: saline) was 98 % of control; the T/C (dose: 6.25 mg/kg/injection, schedule: Q04DX003 (ip), vehicle: saline) is 91 % of control; the T/C under setting [1] was 91 % of control.

Regarding `CC(=O)C1(O)Cc2c(O)c3c(c(O)c2C(OC2CC(N)C(O)C(C)O2)C1)C(=O)c1ccccc1C3=O` (stereo unspecified), the T/C is 107 % of control (dose: 1.4 mg/kg/injection, schedule: Q07DX002 (iv), vehicle: saline); 120 % of control (dose: 2.3 mg/kg/injection, schedule: Q07DX002 (iv), vehicle: saline); 157 % of control (dose: 324.0 micrograms/kg/injection, schedule: Q04DX003 (ip), vehicle: water); 92 % of control (dose: 900.0 micrograms/kg/injection, schedule: Q04DX003 (ip), vehicle: water).

With `Cc1c2oc3c(C)c([N+](=O)[O-])cc(C(=O)NC4C(=O)NC(C(C)C)C(=O)N5CCCC5C(=O)N(C)CC(=O)N(C)C(C(C)C)C(=O)OC4C)c3nc-2c(C(=O)NC2C(=O)NC(C(C)C)C(=O)N3CCCC3C(=O)N(C)CC(=O)N(C)C(C(C)C)C(=O)OC2C)c(N)c1=O` (stereo unspecified), the T/C (dose: 500.0 micrograms/kg/injection, schedule: Q01DX001 (ip), vehicle: saline + alcohol) is 112 % of control.

As for `COc1cccc2c1C(=O)c1c(O)c3c(c(O)c1C2=O)C[C@@](O)(C(=O)COC(=O)c1cccnc1)C[C@@H]3OC1CC(N)C(O)C(C)O1` (stereo partly specified), the T/C (dose: 5.5 mg/kg/injection, schedule: Q07DX003 (iv), vehicle: other) was 113 % of control; the T/C (dose: 8.5 mg/kg/injection, schedule: Q07DX003 (iv), vehicle: other) is 108 % of control; the T/C (dose: 13.1 mg/kg/injection, schedule: Q07DX003 (iv), vehicle: other) was 114 % of control; the T/C (dose: 17.0 mg/kg/injection, schedule: Q07DX002 (iv), vehicle: alkali diluted with saline) is 99 % of control; the T/C (dose: 20.3 mg/kg/injection, schedule: Q07DX003 (iv), vehicle: other) was 115 % of control; the T/C (dose: 26.0 mg/kg/injection, schedule: Q07DX002 (iv), vehicle: alkali diluted with saline) is 94 % of control.

For `c1cc[c]([Sn][c]2ccccc2)cc1`, the T/C is, setting by setting: (dose: 0.62 mg/kg/injection, schedule: Q04DX003 (ip), vehicle: saline with Tween-80) 97 % of control; (dose: 0.62 mg/kg/injection, schedule: Q04DX003 (ip), vehicle: saline) 105 % of control; (dose: 1.25 mg/kg/injection, schedule: Q04DX003 (ip), vehicle: saline with Tween-80) 92 % of control; (dose: 1.25 mg/kg/injection, schedule: Q04DX003 (ip), vehicle: saline) 112 % of control; (dose: 2.5 mg/kg/injection, schedule: Q04DX003 (ip), vehicle: saline with Tween-80) 100 % of control; (dose: 2.5 mg/kg/injection, schedule: Q04DX003 (ip), vehicle: saline) 107 % of control. Also, the T/C was 108 % of control (dose: 5.0 mg/kg/injection, schedule: Q04DX003 (ip), vehicle: saline with Tween-80); 117 % of control (dose: 5.0 mg/kg/injection, schedule: Q04DX003 (ip), vehicle: saline); 86 % of control (dose: 10.0 mg/kg/injection, schedule: Q04DX003 (ip), vehicle: saline).
